Measured values: patent US11357851B2, “Uses of myostatin antagonists, combinations containing them and uses thereof” (Novartis AG, priority 2015, dated 2022)

What was measured:
[1] = test system: CT-26 mouse colon cancer-induced cachexia; test: Therapeutic intervention study in CT-26 mouse colon cancer-induced cachexia (tumor-bearing mice); assay type: in vivo; conditions: for body weight loss (of initial body weight): tumor-bearing animals, ten days after starting treatment, CDD866 20 mg/kg s.c. once weekly, cisplatin 1 mg/kg i.p. twice a week; for CT-26-induced loss in body weight: day 14, CDD866 twice weekly; for CT-26-induced muscle weight loss: tibialis anterior, gastrocnemius-soleus-plantaris complex, quadriceps
Procedure: (§1) Adult male Balb/cJRj mice at the age of 11 to 12 weeks were purchased from Janvier Laboratories (Le Genest St Isle, France). Mice were acclimated to the facility for 7 days. Animals were housed in groups of 5 or less animals at 25° C. with a 12:12 h light-dark cycle. They were fed a standard laboratory diet containing 18.2% protein and 3.0% fat with an energy content of 15.8 MJ/kg (NAFAG 3890, Kliba, Basel, Switzerland). Food and water were provided ad libitum.
(§2) Mouse colon cancer cell line CT-26 was cultured in RPMI 1640 medium supplemented with 10% heat inactivated fetal bovine serum and antibiotic-antimycotic solution at 37° C. with 5% CO2. CT-26 cells were harvested by treatment with Accutase® (PAA Laboratories GmbH, Pasching, Austria) and suspended in a solution containing 50% PBS and 50% BD Matrigel™ Matrix without phenol red (catalog number 356237, BD Biosciences, Bedford, Mass., USA). A 0.1 mL of cell suspension containing 3×10^5 cells was inoculated subcutaneously into the left flank of mice. When tumors were palpable, mice bearing tumors with acceptable morphology and size were randomized to produce groups balanced with respect to mean and range of tumor sizes and body weight. Treatments were initiated on the day of randomization. Therapeutic intervention study was conducted to evaluate the effect of CDD866, either alone or in combination with anti-cancer agents. CDD866 was administered at 20 mg/kg s.c., once or twice weekly in a volume of 5 mL/kg. Cisplatin was administered at 1 mg/kg i.p. twice a week. Everolimus was administered at 5 mg/kg p.o. once daily. In the combination groups, cisplatin or everolimus treatment was combined with once or twice weekly subcutaneous treatment of CDD866, respectively. Body weight and tumor volume were measured 2 to 3 times per week. At the end of the experiment, the mice were euthanized with CO2, and tumor, tibialis anterior, gastrocnemius-soleus-plantaris complex, quadriceps were collected and weighed.
(§3) Values are expressed as mean±SEM. Statistical analysis was carried out using Sidak's multiple comparison test following analysis of variance to compare the treatment groups to the control groups (non-tumor and tumor-bearing), anti-cancer agent alone (cisplatin or everolimus) or CDD866 alone in the therapeutic intervention study, and Dunn's multiple comparisons test for time-to-progression study. Differences were considered to be significant when the probability value was <0.05. Statistical analyses were performed by GraphPad Prism (GraphPad Software, Inc., La Jolla, Calif., USA). Body weight was expressed as % change from day 0 as the start of treatment. Tumor volumes in cubic mm were calculated according to the formula (length×width^2)/2. Muscle weight was normalized to the body weight on the day of cell inoculation (initial body weight) and then expressed as % change from the non-tumor control group.

non-tumor bearing mice = test: Therapeutic intervention study, non-tumor bearing (healthy control) mice; assay type: in vivo, mouse; conditions: for body weight in healthy control animals: cisplatin study, non-tumor mice; for weight of tibialis anterior, gastrocnemius-soleus-plantaris complex and quadriceps muscles in non-tumor bearing group / body weight gain in non-tumor bearing group: everolimus study; for body weight gain in non-tumor bearing group: up to day 14, CDD866 20 mg/kg s.c. twice weekly, everolimus 5 mg/kg p.o. once daily
Procedure: as §1, §2, §3

[2] = test system: CT-26 mouse colon cancer-induced cachexia; test: Time-to-progression study in CT-26 mouse colon cancer cachexia; assay type: in vivo; conditions: for time-to-progression (days until body weight loss 20% or tumor volume 1,500 mm^3): cisplatin combination study, CDD866 once weekly; for time-to-progression (median days elapsed until an interruption criterion): everolimus combination study, after randomization and treatment start, CDD866 twice weekly
Procedure: Time-to-progression study was performed as a follow-up to assess if the combination of CDD866 and cisplatin or everolimus slows progression of cancer cachexia to the interruption criteria which was defined by body weight loss reaching to 20% or tumor volume exceeding 1,500 mm^3. The treatment regimen was the same as used in the therapeutic intervention study. Body weight and tumor volume were measured 2 to 3 times per week in the first 2 weeks and then every day until the end of experiment. The mice were euthanized with CO2, when body weight loss was close to 20% or tumor volume exceeded 1,500 mm^3.
as §3
Extensive tumor growth and subsequent body weight loss are important predictors of mortality in cancer patients. We therefore wanted to evaluate whether the combination of CDD866 and cisplatin has an impact on the length of survival. For ethical reason we abstained from classical survival studies. Instead, each mouse was individually euthanized when experiencing either a body weight loss exceeding 20% of initial body weight, or reaching a tumor volume of 1,500 mm^3, determined as time-to-progression.

[3] = cisplatin study, CT-26 tumor-bearing mice
[4] = cisplatin study, CT-26 tumor-bearing mice, normalized to initial body weight, versus non-tumor control

| Compound | tumor progression / CT-26 tumor volume and weight [1, 3] | gastrocnemius muscle weight loss [1, 4] [%] | tibialis anterior muscle wasting (muscle loss) [1, 4] [%] | body weight loss (of initial body weight) ([1]; cisplatin study) [%] | body weight in healthy control animals (non-tumor bearing mice) | time-to-progression (days until body weight loss 20% or tumor volume 1,500 mm^3) [2] [days] | CT-26 tumor growth ([1]; everolimus study) | CT-26 tumor weight ([1]; everolimus study) | CT-26-induced loss in body weight ([1]; everolimus study) | CT-26-induced muscle weight loss ([1]; everolimus study) | weight of tibialis anterior, gastrocnemius-soleus-plantaris complex and quadriceps muscles in non-tumor bearing group (non-tumor bearing mice) | body weight gain in non-tumor bearing group (non-tumor bearing mice) | time-to-progression (median days elapsed until an interruption criterion) [2] [days] |
| --- | --- | --- | --- | --- | --- | --- | --- | --- | --- | --- | --- | --- | --- |
| N.N.[Cl][Pt][Cl] [cisplatin, cis-diamminedichloro-platinum(II)] | reduced CT-26 tumor weight to similar levels | 25 | 34 | 20 | did not affect body weight | 12 | – | – | – | – | – | – | – |
| CO[C@H]1C[C@@H]2CC[C@@H](C)[C@@](O)(O2)C(=O)C(=O)N2CCCC[C@H]2C(=O)O[C@H]([C@H](C)C[C@@H]2CC[C@@H](OCCO)[C@H](OC)C2)CC(=O)[C@H](C)/C=C(\C)[C@@H](O)[C@@H](OC)C(=O)[C@H](C)C[C@H](C)/C=C/C=C/C=C/1C [everolimus, (1R,9S,12S,15R,16E,18R,19R,21R,23S,24E,26E,28E,30S,32S,35R)-1,18-d ihydroxy-12-{(1 R)-2-[(1S,3R,4R)-4-(2-hydroxyethoxy)-3-methoxycyclohexyl]-1-methylethyl}-19,30-dimethoxy-15,17,21,23,29,35-hexamethyl-11,36-dioxa-4-aza-tricyclo[30.3.1.04,9]hexatriaconta-16,24,26,28-tetraene-2,3,10,14,20-pentaone] | – | – | – | – | – | – | slowed CT-26 tumor growth | significantly reduced | completely prevented | significantly reduced | not affected | not affected significantly | 23 |
| CDD866: murinized version of bimagrumab, where the human Fc region of the antibody has been replaced by a mouse Fc | neither accelerated tumor progression | 13 | – | 3 | marked body weight gain | 16 | – | no significant effect | completely prevented | significantly reduced | significantly increased | increased significantly | 21 |
